How the values were obtained:
ERK2 T157A/D319N = ERK2 T157A/D319N (Rattus norvegicus (Rat), UniProt P63086, D319N/T157A); test: Fluorescence quenching (FQ) binding affinity; details: read-out: KD T157A/D319N (Site1)
[1] = test system: serum response element (SRE); test: SRE promoter luciferase assay, HeLa cells (Example 4); assay type: cell-based; details: Homo sapiens, EGF 25 ng/mL, read-out: estimated IC50 SRE promoter activity
Description: (§1) HeLa cells were seeded in 24-well plates (4×10^4 cells/well) and incubated 18 hours prior to achieve ˜60-70% confluent. Cells were transfected with activator protein-1 (pAP1(PMA)-TA-Luc; Clontech) or the serum response element (pGL4.33-SRE; Promega) luciferase reporter plasmids (250 ng/well) using Lipofectamine™ (Invitrogen). After 16 hours, cells were treated with increasing amount of compounds as indicated for 20 minutes, followed by stimulation with EGF (25 ng/mL) for 4.5 hr. The luciferase activity in the cell extracts was determined with a Dual Luciferase Assay System (Promega) according to the manufacturer's instructions. Luciferase activities were monitored with a Lumat LB 9507 luminometer (Berthold Technology) and data were normalized to the amount of protein in each sample.

ERK2 T157A = ERK2 T157A (Rattus norvegicus (Rat), UniProt P63086, T157A); test: Fluorescence quenching (FQ) binding affinity; details: read-out: KD T157A (Site1)
RPMI7951 melanoma cells = test: Dose-response growth inhibition (GI50) of select compounds; assay type: cell-based; details: Homo sapiens, RPMI-7951, 48 h, two days
Description: (§2) An example of the dose response curve for compound 30h and the BRaf inhibitor PLX4032 for inhibiting the growth of melanoma cell lines is shown in FIG. 14. […] A summary of GI50 values for select compounds along with comparisons to know ERK pathway inhibitors in various cell lines is shown in Table 13. […] First, thiazolidinedione compounds have been identified to be selective inhibitors of cancer cell lines containing activated ERK signaling. Second, changes in the 4-ethoxyphenyl component of the parent compound 76 improve selectivity and potency for inhibiting melanoma cell growth. Third, compound 30h is a potent inhibitor of melanoma cell lines that have become resistant to the clinically relevant BRaf and MEK inhibitors. […] Lastly, 30h is as potent as the ATP-competitive pyrazolopyridazinamine ERK inhibitor (FR180204) in preventing melanoma cell proliferation and provides an alternative non-ATP-dependent approach to target cancer cells that are dependent on active ERK signaling.
(§3) Melanoma cells (A375, SK-MEL-28, and RPMI7951) were seeded at a density of 5,000 per well in 96-well plate. After overnight incubation, cells were treated with varying doses of PLX4032 (A) or 31h (B) for two days. Cell viability was determined by the addition of Cell Titer-Blue Reagent (20 μL/well) followed by 2 hours of incubation at 37° C. after which fluorescence was recorded (555/585 nm). Cell viability was expressed as percentage of vehicle control and data represent the average of three individual experiments.

SK-MEL-28 melanoma cells [2] = test: as above; assay type: cell-based; details: Homo sapiens, SK-MEL-28, 48 h, two days
Description: as §2, §3

A375 melanoma cells [3] = test: as above; assay type: cell-based; details: Homo sapiens, A-375, 48 h, two days
Description: as §2, §3

[4] = test system: activator protein-1 (AP-1) promoter; test: AP-1 promoter luciferase assay, HeLa cells (Example 4); assay type: cell-based; details: Homo sapiens, EGF 25 ng/mL, read-out: estimated IC50 AP-1 promoter activity
Description: as §1

HeLa cells = test: Dose-response growth inhibition (GI50) of select compounds; assay type: cell-based; details: Homo sapiens, HeLa
[5] = test system: A549 lung carcinoma cells; test: Colony formation assay; assay type: cell-based; details: Homo sapiens, read-out: IC50 growth inhibition, colony formation, A549
Description: (§4) We have successfully used computer-aided drug design (CADD) to search for low-molecular-weight docking domain inhibitors of ERK. One of the compounds, identified as 76, binds ERK2 with a Kd value of 5 μM and blocks phosphorylation of the downstream ERK targets RSK-1 and Elk-1. Moreover, 76 inhibited growth of HeLa cervical carcinoma and A549 lung carcinoma cells as assessed by colony formation assay in a dose dependent manner with IC50 values of ˜20 μM.

[6] = test system: HeLa cervical carcinoma cells; test: Colony formation assay; assay type: cell-based; details: Homo sapiens, read-out: IC50 growth inhibition, colony formation, HeLa
Description: as §4

ERK2 D319N = ERK2 D319N (Rattus norvegicus (Rat), UniProt P63086, D319N); test: Fluorescence quenching (FQ) binding affinity; details: read-out: KD D319N (Site1)
ERK2 wild type (WT) = ERK2 wild type (WT) (Rattus norvegicus (Rat), UniProt P63086); test: Fluorescence quenching (FQ) binding affinity; details: 1 nM to 20 μM test compound
HL-60 leukemic cells = test: Cell proliferation WST-1 assay, single dose (Example 4); assay type: cell-based; details: 100 μM, 48 hours
How it was run: (§5)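 Proliferation is measured by WST-1 reduction: after roughly 5000 cells per well rest 16-20 hours, they receive compound for 48 hours, and the signal is normalized to DMSO control.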

RPMI-7951 melanoma cells = test: as above; assay type: cell-based; details: 100 μM, 48 hours
How it was run: as §5

SK-MEL-28 melanoma cells [7] = test: as above; assay type: cell-based; details: 100 μM, 48 hours
How it was run: as §5

[8] = test system: Jurkat T-cell leukemia cells; test: as above; assay type: cell-based; details: 100 μM, 48 hours
How it was run: as §5

A375 melanoma cells [9] = test: as above; assay type: cell-based; details: 100 μM, 48 hours
How it was run: as §5

[10] = test system: HeLa cervical carcinoma cells; test: as above; assay type: cell-based; details: 100 μM, 48 hours
How it was run: as §5

Jurkat cells = test: Dose-response growth inhibition (GI50) of select compounds; assay type: cell-based; details: Homo sapiens, Jurkat

Sequence of ERK2 T157A/D319N (P63086 whole entry T157A/D319N): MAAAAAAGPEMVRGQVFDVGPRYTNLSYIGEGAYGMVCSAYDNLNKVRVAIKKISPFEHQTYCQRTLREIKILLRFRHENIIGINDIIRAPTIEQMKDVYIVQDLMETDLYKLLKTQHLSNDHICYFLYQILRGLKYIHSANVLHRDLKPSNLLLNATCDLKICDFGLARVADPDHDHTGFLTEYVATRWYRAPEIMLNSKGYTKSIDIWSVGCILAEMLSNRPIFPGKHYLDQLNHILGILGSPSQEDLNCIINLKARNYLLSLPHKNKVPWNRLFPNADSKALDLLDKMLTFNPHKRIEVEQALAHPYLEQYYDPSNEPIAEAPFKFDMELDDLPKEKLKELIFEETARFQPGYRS
Sequence of ERK2 D319N (P63086 whole entry D319N): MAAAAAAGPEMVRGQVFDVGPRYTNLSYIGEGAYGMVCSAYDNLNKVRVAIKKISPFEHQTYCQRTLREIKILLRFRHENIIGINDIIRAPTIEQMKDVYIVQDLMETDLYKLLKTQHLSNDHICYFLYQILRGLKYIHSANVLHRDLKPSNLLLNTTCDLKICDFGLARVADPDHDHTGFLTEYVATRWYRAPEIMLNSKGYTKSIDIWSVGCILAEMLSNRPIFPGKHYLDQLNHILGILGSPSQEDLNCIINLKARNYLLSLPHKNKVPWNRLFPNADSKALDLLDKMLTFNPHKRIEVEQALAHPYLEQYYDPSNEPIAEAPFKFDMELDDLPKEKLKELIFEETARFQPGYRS
Sequence of ERK2 wild type (WT) (P63086 whole entry): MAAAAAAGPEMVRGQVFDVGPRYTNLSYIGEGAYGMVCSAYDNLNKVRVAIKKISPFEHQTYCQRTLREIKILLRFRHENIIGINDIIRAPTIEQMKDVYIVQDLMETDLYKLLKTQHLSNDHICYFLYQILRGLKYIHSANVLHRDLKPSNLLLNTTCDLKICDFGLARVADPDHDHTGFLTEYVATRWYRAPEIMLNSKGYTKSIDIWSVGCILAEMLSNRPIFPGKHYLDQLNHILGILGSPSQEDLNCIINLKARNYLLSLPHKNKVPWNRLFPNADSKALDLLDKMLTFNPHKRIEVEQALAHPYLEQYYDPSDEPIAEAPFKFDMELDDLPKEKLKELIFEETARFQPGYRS
Sequence of ERK2 T157A (P63086 whole entry T157A): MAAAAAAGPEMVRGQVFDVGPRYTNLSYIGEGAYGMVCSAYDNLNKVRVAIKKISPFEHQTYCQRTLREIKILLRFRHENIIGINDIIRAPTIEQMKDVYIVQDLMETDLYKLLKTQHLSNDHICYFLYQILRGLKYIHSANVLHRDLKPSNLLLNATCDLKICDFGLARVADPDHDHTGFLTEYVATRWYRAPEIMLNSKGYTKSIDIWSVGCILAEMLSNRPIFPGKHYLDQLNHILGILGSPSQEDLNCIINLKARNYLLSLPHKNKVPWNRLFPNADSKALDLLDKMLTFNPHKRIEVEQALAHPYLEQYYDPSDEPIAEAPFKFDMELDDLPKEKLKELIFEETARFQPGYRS

Kd (ERK2 T157A/D319N): 6.4 ± 0.3 µM | IC50 [1]: ≤ 5 µM | Kd (ERK2 T157A): 6.1 ± 0.6 µM | GI50 (RPMI7951 melanoma cells): 46 µM | GI50 (SK-MEL-28 melanoma cells [2]): 34 µM | GI50 (A375 melanoma cells [3]): 29 µM | IC50 [4]: ≤ 5 µM | GI50 (HeLa cells): > 100 µM | IC50 [5]: ~20 µM | IC50 [6]: ~20 µM | Kd (ERK2 D319N): 7 ± 1 µM | Kd (ERK2 wild type (WT)): 5 µM | GI50 (Jurkat cells): > 100 µM
Structure (SMILES): CCOc1ccc(/C=C2\SC(=O)N(CCN)C2=O)cc1 [Compound 76, (Z)-3-(2-aminoethyl)-5-(4-ethoxybenzylidene)thiazolidine-2,4-dione]
Cell Viability (% of Vehicle) HL-60 (HL-60 leukemic cells): 4.4 ± 1 % of Vehicle | Cell Viability (% of Vehicle) RPMI-7951 (RPMI-7951 melanoma cells): 0.3 ± 0.02 % of Vehicle | Cell Viability (% of Vehicle) SK-MEL-28 (SK-MEL-28 melanoma cells [7]): 11 ± 7 % of Vehicle | Cell Viability (% of Vehicle) Jurkat [8]: 59 ± 5 % of Vehicle | Cell Viability (% of Vehicle) A375 (A375 melanoma cells [9]): 2.1 ± 2 % of Vehicle | Cell Viability (% of Vehicle) HeLa [10]: 53 ± 3 % of Vehicle
